From patent US6828320B2, “Heterocyclic compounds” (SmithKline Beecham Corporation, priority 1996, dated 2004)
Where a name gives a salt, the structure may show the parent alone. Read-outs that look alike come from different tables or passages of the source.

Legend:
[1] = molecular target: T1, c-erbB-2 (baculovirus expressed, recombinant intracellular domain) (Homo sapiens, UniProt P04626); test: Substrate phosphorylation assay, c-erbB-2; assay type: biochemical; conditions: read-out: Substrate Phosphorylation erbB-2
T1 construct: baculovirus expressed, recombinant constructs of the intracellular domains of c-erbB-2 and c-erbB-4; made in house
T1 sequence (P04626 676-1255 limits assumed): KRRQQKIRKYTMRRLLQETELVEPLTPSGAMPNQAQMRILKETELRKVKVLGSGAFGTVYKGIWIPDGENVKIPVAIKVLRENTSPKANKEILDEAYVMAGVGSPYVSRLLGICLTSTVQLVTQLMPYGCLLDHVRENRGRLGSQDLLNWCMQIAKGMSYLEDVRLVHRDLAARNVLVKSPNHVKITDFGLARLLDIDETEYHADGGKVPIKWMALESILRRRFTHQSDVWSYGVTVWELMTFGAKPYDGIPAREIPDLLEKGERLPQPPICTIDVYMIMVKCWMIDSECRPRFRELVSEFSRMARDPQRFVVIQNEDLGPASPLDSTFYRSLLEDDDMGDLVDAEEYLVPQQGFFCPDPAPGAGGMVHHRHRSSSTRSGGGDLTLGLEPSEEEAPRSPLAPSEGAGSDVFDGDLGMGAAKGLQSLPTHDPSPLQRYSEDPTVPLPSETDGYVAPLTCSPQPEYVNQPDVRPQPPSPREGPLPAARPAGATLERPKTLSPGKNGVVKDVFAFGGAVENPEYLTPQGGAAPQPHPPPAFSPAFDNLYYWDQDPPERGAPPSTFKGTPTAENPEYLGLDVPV
Procedure: (§1) The substrate phosphorylation assays use baculovirus expressed, recombinant constructs of the intracellular domains of c-erbB-2 and c-erbB-4 that are constitutively active and EGFr isolated from solubilised A431 cell membranes. The method measures the ability of the isolated enzymes to catalyse the transfer of the γ-phosphate from ATP onto tyrosine residues in a biotinylated synthetic peptide (Biotin-[…]. […] The reaction is stopped by the addition of EDTA (final concentration 0.15 mM) and a sample is transferred to a streptavidin-coated 96-well plate. The plate is washed and level of phosphotyrosine on the peptide is determined using a Europium-labelled antiphosphotyrosine antibody and quantified with a time-resolved fluorescence technique.

[2] = system: HB4a cell line transfected with ras; test: Cell proliferation assay, HB4a ras; assay type: cell-based, human; conditions: Homo sapiens, HB4a, 96 h; 4 days at 37° C., methylene blue staining; general toxicity control; read-out: Cell Proliferation HB4a ras
[3] = molecular target: T2, EGFr isolated from solubilised A431 cell membranes (Homo sapiens, UniProt P00533); test: Substrate phosphorylation assay, EGFr; assay type: biochemical
T2 construct: EGFr isolated from solubilised A431 cell membranes; endogenous in cells; host or cells: A431 cell membranes (solubilised)
T2 sequence (P00533 25-1210): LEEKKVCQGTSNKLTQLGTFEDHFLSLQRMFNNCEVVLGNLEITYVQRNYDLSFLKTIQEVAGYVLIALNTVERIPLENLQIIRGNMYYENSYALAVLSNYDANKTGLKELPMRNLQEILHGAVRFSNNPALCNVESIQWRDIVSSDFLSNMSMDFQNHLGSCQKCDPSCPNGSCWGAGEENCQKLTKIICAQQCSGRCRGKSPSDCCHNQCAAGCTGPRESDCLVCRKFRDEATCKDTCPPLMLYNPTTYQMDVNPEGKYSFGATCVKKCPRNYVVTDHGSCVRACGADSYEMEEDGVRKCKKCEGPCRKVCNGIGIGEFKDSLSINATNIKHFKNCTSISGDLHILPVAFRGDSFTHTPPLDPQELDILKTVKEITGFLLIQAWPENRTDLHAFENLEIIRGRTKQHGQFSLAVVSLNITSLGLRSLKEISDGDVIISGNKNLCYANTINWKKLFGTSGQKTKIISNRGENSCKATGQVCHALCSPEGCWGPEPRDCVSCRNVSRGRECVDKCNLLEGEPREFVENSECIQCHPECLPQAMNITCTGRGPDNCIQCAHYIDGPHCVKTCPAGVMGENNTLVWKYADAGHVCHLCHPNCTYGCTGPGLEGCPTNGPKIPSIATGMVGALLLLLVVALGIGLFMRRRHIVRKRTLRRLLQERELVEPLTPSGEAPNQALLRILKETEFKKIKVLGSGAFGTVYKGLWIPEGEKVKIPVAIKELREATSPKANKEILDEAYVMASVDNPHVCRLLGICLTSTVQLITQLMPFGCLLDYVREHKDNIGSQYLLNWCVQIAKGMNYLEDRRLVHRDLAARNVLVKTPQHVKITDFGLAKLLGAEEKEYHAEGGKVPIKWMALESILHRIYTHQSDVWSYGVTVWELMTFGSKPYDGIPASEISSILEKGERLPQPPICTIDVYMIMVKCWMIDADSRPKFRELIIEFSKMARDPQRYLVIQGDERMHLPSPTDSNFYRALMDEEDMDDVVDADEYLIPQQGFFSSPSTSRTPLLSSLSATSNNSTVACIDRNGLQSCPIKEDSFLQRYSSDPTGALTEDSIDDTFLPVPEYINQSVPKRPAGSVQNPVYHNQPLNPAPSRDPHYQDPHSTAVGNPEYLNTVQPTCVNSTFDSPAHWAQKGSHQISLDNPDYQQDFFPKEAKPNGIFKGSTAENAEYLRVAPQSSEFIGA
Procedure: as §1

[4] = molecular target: HB4a cell line transformed by over-expression of c-erbB-2 (Homo sapiens, UniProt P04626); test: Cell proliferation assay, HB4a erbB-2; assay type: cell-based; conditions: 4 days at 37° C., methylene blue staining; read-out: Cell Proliferation HB4a erbB-2
Sequence of HB4a cell line transformed by over-expression of c-erbB-2 (P04626 whole entry, change not shown): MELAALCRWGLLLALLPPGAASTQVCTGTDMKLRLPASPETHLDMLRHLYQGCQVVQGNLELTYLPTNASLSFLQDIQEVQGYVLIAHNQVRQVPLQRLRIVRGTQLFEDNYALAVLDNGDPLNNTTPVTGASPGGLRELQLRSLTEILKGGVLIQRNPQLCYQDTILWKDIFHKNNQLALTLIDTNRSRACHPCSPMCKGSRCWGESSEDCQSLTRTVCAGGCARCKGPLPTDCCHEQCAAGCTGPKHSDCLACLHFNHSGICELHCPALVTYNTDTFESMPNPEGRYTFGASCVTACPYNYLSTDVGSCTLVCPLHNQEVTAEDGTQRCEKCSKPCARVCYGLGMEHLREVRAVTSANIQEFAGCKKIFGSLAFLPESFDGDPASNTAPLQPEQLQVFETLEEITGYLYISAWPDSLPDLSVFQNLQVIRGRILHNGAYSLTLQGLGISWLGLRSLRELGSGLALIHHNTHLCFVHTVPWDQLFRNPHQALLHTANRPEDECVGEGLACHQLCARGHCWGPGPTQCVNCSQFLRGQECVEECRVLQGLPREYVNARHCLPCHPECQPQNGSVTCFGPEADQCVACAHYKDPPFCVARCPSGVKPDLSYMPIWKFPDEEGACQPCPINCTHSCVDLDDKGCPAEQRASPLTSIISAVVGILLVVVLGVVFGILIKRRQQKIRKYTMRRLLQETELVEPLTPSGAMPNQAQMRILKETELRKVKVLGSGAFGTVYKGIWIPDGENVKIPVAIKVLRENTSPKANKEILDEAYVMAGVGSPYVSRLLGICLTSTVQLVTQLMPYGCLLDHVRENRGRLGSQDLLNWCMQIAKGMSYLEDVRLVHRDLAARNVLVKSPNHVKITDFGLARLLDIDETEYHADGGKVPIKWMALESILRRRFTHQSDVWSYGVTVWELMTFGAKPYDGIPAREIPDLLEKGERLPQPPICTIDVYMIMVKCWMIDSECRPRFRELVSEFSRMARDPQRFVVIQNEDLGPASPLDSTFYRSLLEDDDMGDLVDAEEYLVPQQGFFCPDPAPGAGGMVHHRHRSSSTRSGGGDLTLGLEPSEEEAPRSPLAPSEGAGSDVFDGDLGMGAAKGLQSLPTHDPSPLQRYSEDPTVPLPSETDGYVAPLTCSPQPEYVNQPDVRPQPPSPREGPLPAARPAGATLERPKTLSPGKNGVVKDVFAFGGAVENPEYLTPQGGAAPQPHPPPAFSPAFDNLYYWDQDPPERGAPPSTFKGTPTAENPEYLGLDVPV
Procedure: The cell proliferation assay uses an immortalised human breast epithelial cell line (HB4a) which has been transformed by over-expression of c-erbB-2. Growth of these cells in low serum is dependent upon the c-erbB-2 tyrosine kinase activity. […] Cells are plated at 3000/ well in 96-well plates in 0.1 ml medium and allowed to attach overnight. test compound is added in 0.1 ml medium, with a final concentration of 0.5% DMSO, and the plates incubated for 4 days at 37° C. The cells are then examined microscopically for evidence of morphological detransformation and cell mass is estimated by staining with methylene blue and measuring the absorbance at 620 nm. […] Activity against a range of naturally occurring EGFr or c-erbB-2 over-expressing human tumour cell lines (BT474-breast, HN5-head and neck, N87-gastric and Calu3-lung) is assessed with selected compounds by the same methodology.

[5] = molecular target: T3, c-erbB-4 (baculovirus expressed, recombinant intracellular domain) (Homo sapiens, UniProt Q15303); test: Substrate phosphorylation assay, c-erbB-4; assay type: biochemical
T3 construct: baculovirus expressed, recombinant constructs of the intracellular domains of c-erbB-2 and c-erbB-4; made in house
T3 sequence (Q15303 676-1308 limits assumed): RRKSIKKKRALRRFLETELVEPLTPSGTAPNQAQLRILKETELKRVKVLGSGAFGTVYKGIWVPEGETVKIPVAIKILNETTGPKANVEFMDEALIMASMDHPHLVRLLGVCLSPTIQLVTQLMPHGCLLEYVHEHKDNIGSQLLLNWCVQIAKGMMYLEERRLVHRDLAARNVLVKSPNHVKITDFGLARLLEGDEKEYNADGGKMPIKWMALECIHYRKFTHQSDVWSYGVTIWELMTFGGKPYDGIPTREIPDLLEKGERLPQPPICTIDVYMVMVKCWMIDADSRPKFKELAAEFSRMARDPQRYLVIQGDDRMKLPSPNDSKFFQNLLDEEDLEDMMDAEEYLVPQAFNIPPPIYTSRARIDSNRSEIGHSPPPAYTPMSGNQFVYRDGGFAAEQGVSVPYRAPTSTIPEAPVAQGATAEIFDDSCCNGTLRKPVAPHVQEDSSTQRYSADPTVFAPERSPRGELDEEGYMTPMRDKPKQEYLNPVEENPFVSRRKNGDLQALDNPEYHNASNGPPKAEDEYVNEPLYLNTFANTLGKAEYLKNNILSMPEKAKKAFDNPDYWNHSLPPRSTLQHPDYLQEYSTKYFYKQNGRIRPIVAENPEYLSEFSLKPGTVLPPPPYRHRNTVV
Procedure: as §1

[6] = 30 minutes, room temperature, ATP and peptide at Km concentrations

IC50 [1] [nM] | IC50 [3, 6] [nM] | GI50 [4] [nM] | IC50 [5] [nM] | IC50 [3] [nM] | SMILES | IC50 [2] [nM]
350 | 300 | 450 | 2300 | – | CCN(CCN(C)C)Cc1ccc(-c2ccc3ncnc(Nc4ccc(OCc5ccccc5)cc4)c3c2)o1 [Example 13, N-(5-(4-(4-Benzyloxy-phenylamino)-quinazolin-6-yl)-furan-2-ylmethyl)-N-ethyl-N′,N′-dimethyl-ethane-1,2-diamine] | 2200
34 | – | 680 | 1200 | 200 | c1ccc(COc2ccc(Nc3ncnc4ccc(-c5ccc(CNc6cccnc6)o5)cc34)cc2)cc1 [Example 14, (4-Benzyloxy-phenyl)-(6-(5-(pyridin-3-ylaminomethyl)-furan-2-yl)quinazolin-4-yl)-amine] | 5000
50 | 540 | 2600 | 2300 | – | c1ccc(COc2ccc(Nc3ncnc4ccc(-c5ccc(CNCC6CCCO6)o5)cc34)cc2)cc1 (stereo not shown) [Example 15, (4-Benzyloxy-phenyl)-(6-(5-(((tetrahydro-furan-2-ylmethyl)-amino)-methyl)-furan-2-yl)-quinazolin-4-yl)-amine hydrochloride] | 3200
3 | 140 | 6200 | – | – | Cc1nnc(-c2ccc3ncnc(Nc4ccc(Oc5ccccc5)cc4)c3c2)o1 [Example 20, (4-Phenoxy-phenyl)-(6-(5-methyl-1,3,4-oxadiazol-2-yl)quinazolin-4-yl)-amine hydrochloride] | > 50000
9 | 28 | 2300 | – | – | Cc1nnc(-c2ccc3ncnc(Nc4ccc5c(cnn5Cc5ccccc5F)c4)c3c2)o1 [Example 21, (1-(2-Fluorobenzyl)-1H-indazol-5-yl)-(6-(5-methyl-1,3,4-oxadiazol-2-yl)-quinazolin-4-yl-amine hydrochloride] | > 50000
1 | 32 | 31000 | – | – | Cc1nnc(-c2ccc3ncnc(Nc4ccc5c(cnn5Cc5ccccn5)c4)c3c2)o1 [Example 23, (1-Pyridin-2-ylmethyl)-1H-indazol-5-yl)-(6-(5-methyl-1,3,4-oxadiazol-2-yl)-quinazolin-4-yl)-amine hydrochloride] | > 50000
2 | 15 | 17000 | – | – | Cc1nnc(-c2ccc3ncnc(Nc4ccc5c(cnn5Cc5cccc(F)c5F)c4)c3c2)o1 [Example 24, (1-(2,3-Difluorobenzyl)-1H-indazol-5-yl)-(6-(5-methyl-1,3,4-oxadiazol-2-yl)quinazolin-4-yl)-amine hydrochloride] | > 50000
15 | 22 | 750 | – | – | Cc1nnc(-c2ccc3ncnc(Nc4ccc(OCc5ccccc5F)c(Cl)c4)c3c2)o1 [Example 25, (3-Chloro-4-(2-fluoro-benzyloxy)-phenyl)-(6-(5-methyl-1,3,4-oxadiazol-2-yl)-s-quinazolin-4-yl)-amine hydrochloride] | > 50000
7 | 18 | 650 | – | – | Cc1nnc(-c2ccc3ncnc(Nc4ccc(OCc5cccc(F)c5)c(Cl)c4)c3c2)o1 [Example 26, (3-Chloro-4-(3-fluoro-benzyloxy)-phenyl)-(6-(5-methyl-1,3,4-oxadiazol-2-yl)-quinazolin-4-yl)-amine hydrochloride] | > 50000
10 | 47 | 6500 | – | – | Cc1nnc(-c2ccc3ncnc(Nc4ccc(OCc5ccccc5)cc4)c3c2)o1 [Example 27, (4-Benzyloxy-phenyl)-(6-(5-methyl-1,3,4-oxadiazol-2-yl)-quinazolin-4-yl)-amine hydrochloride] | 50000
– | – | 1100 | – | 9 | Cc1nnc(-c2ccc3ncnc(Nc4ccc5c(cnn5Cc5cc(F)cc(F)c5)c4)c3c2)o1 [Example 31, (1-(3,5-Difluoro-benzyl)-1H-indazol-5-yl)-(6-(5-methyl-1,3,4-oxadiazol-2-yl)-quinazolin-4-yl)-amine hydrochloride] | > 50000
88 | 140 | – | 520 | – | Cn1cncc1-c1ccc2ncnc(Nc3ccc4c(cnn4Cc4ccccc4)c3)c2c1 [Example 38, (1-Benzyl-1H-indazol-5-yl)-(6-(3-methyl-3H-imidazol-4-yl)-quinazolin-4-yl)-amine] | –
20 | – | 38000 | 5800 | – | COC(=O)c1ccc(-c2ccc3ncnc(Nc4ccc(OCc5ccccc5)cc4)c3c2)o1 [Example 51, 5-(4-(4-Benzyloxy-phenylamino)-quinazolin-6-yl)-furan-2-carboxylic acid methyl ester] | 21000
– | 13 | 1800 | – | – | CS(=O)(=O)CCNC(=O)c1ccc(-c2ccc3ncnc(Nc4ccc(OCc5ccccc5)cc4)c3c2)o1 [Example 53, 5-[4-(4-Benzyloxy-phenylamino)-quinazolin-6-yl]-furan-2-carboxylic acid (2-methanesulphonyl-ethyl)-amide hydrochloride] | 36000
24 | – | 140 | 280 | – | CNS(=O)(=O)CCNCc1ccc(-c2ccc3ncnc(Nc4ccc(OCc5ccccc5)cc4)c3c2)o1 [Example 54, 2-((5-(4-(4-Benzyloxy-phenylamino)-quinazolin-6-yl)-furan-2-ylmethyl)-amino)-ethanesulphonic acid methylamide] | 7400
10 | – | 2000 | 1000 | – | Cc1noc(-c2ccc3ncnc(Nc4ccc5c(cnn5Cc5ccccc5)c4)c3c2)n1 [Example 55, (1-Benzyl-1H-indazol-5-yl)-(6-(3-methyl-1,2,4-oxadiazol-5-yl)-quinazolin-4-yl)-amine hydrochloride] | 20000
260 | – | 1700 | > 10000 | – | Cc1nc(-c2ccc3ncnc(Nc4ccc(OCc5ccccc5)cc4)c3c2)no1 [Example 56, (4-Benzyloxy-phenyl)-(6-(5-methyl-1,2,4-oxadiazol-3-yl)-quinazolin-4-yl)-amine] | > 50000
– | 11 | 790 | – | – | CS(=O)(=O)CCNCc1nc(-c2ccc3ncnc(Nc4ccc5c(cnn5Cc5ccccc5)c4)c3c2)no1 [Example 59, (1-Benzyl-1H-indazol-5-yl)-(6-(5-(((2-methanesulphonyl-ethyl)-amino)-methyl)-1,2,4-oxadiazol-3-yl)-quinazolin-4-yl)-amine] | 11000
– | 1900 | 540 | – | – | CS(=O)(=O)Cc1nc(-c2ccc3ncnc(Nc4ccc5c(cnn5Cc5ccccc5)c4)c3c2)no1 [Example 60, (1-Benzyl-1H-indazol-5-yl)-(6-(5-methanesulphonylmethyl-1,2,4-oxadiazol-3-yl)-quinazolin-4-yl)-amine] | 50000
– | 810 | 500 | – | – | Cc1nc(-c2ccc3ncnc(Nc4ccc5c(cnn5Cc5ccccc5)c4)c3c2)no1 [Example 61] | 3100
100 | 13 | 500 | – | – | c1ccc(Cn2ncc3cc(Nc4ncnc5ccc(-c6noc(Cc7cccnc7)n6)cc45)ccc32)cc1 [Example 62] | 3700
130 | – | 2100 | 9700 | – | Cc1nocc1-c1ccc2ncnc(Nc3ccc(OCc4ccccc4)cc3)c2c1 [Example 85, (4-Benzyloxy-phenyl)-(6-(3-methyl-[1,2]oxazol-4-yl)-quinazolin-4-yl)-amine] | 2300
